Results from ChEMBL document CHEMBL1799997, “Discovery of omecamtiv mecarbil the first, selective, small molecule activator of cardiac Myosin” (ACS Med Chem Lett, 2010).
≈ marks a conversion by molar mass, not a printed value. Calls of active or inactive are those of the source. The rule behind the calls is not given here.

Legend:
[1] = Solubility of the compound at pH 5 by shake flask method; assay type: physicochemical; conditions: buffer
[2] = Ratio of extraction in human Liver microsomes; assay type: ADME, Microsome; conditions: read-out: ERH
Aorta = experiment: Inhibition of vasodilation in Sprague-Dawley rat aortic ring; assay type: functional
Cytochrome P450 1A2 = target: T1, Cytochrome P450 1A2 (Homo sapiens, UniProt P05177); experiment: Inhibition of CYP1A2; assay type: ADME
T1 sequence (P05177 whole entry): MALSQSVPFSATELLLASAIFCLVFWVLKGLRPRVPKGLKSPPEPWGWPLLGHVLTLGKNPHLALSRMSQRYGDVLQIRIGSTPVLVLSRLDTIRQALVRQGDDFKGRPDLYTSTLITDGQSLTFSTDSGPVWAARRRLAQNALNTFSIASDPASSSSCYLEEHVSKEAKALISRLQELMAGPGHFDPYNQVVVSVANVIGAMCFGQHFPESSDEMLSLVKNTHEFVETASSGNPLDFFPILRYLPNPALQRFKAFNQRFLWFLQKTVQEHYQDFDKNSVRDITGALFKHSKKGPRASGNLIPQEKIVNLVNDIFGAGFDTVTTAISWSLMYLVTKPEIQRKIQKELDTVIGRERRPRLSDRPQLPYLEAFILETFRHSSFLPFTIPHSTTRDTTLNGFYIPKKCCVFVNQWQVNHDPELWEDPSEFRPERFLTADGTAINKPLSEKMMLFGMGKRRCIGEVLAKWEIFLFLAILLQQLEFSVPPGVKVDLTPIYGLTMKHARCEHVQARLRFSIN

Rattus norvegicus [3] = organism: Rattus norvegicus; experiment: Activation of Sprague-Dawley rat myosin in cardiomyocytes assessed as compound concentration resulting in 40% increase in ATPase activity at calcium concentrations that produced 25-50% of maximum calcium dependent activation; assay type: cell-based
[4] = Induction of contractility in Sprague-Dawley rat Cardiomyocytes assessed as change in fractional shortening at 2 uM; assay type: functional, Cardiac muscle cell
CYP1A2 = target: T2, CYP1A2 (Homo sapiens, UniProt P05177); experiment: Inhibition of CYP1A2 at 10 uM; assay type: ADME
T2 sequence (P05177 whole entry): T1 sequence (P05177 whole entry)

[5] = Plasma protein binding in Sprague-Dawley rat; assay type: ADME, cell-free; conditions: read-out: PPB (converted)
[6] = Induction of contractility in Sprague-Dawley rat Cardiomyocytes assessed as change in fractional shortening at 10 uM; assay type: functional, Cardiac muscle cell
[7] = Induction of contractility in Sprague-Dawley rat Cardiomyocytes assessed as change in fractional shortening at 0.4 uM; assay type: functional, Cardiac muscle cell
[8] = Induction of contractility in Sprague-Dawley rat Cardiomyocytes assessed as change in fractional shortening at 0.8 uM; assay type: functional, Cardiac muscle cell
[9] = Kinetic solubility of the compound; assay type: physicochemical
[10] = Volume of distribution in Sprague-Dawley rat; assay type: ADME, organism-based; conditions: in vivo
[11] = Bioavailability in Sprague-Dawley rat; assay type: ADME, organism-based; conditions: in vivo
[12] = Bioavailability in Beagle dog heart failure model; assay type: ADME, organism-based, Canis lupus familiaris; conditions: in vivo
[13] = Volume of distribution in Beagle dog heart failure model; assay type: ADME, organism-based, Canis lupus familiaris; conditions: in vivo
[14] = Clearance in Beagle dog heart failure model; assay type: ADME, organism-based, Canis lupus familiaris; conditions: in vivo
[15] = Induction of contractility in Sprague-Dawley rat Cardiomyocytes assessed as change in fractional shortening at 0.2 uM; assay type: functional, Cardiac muscle cell
[16] = Clearance in Sprague-Dawley rat; assay type: ADME, organism-based; conditions: in vivo
Gallus gallus = organism: Gallus gallus; experiment: Activation of chicken gizzard myosin in smooth muscle assessed as compound concentration resulting in 40% increase in ATPase activity at calcium concentrations that produced 25-50% of maximum calcium dependent activation at 100 uM as single dose
Bos taurus [17] = organism: Bos taurus; experiment: Activation of bovine myosin in cardiac sarcomere assessed as compound concentration resulting in 40% increase in ATPase activity at calcium concentrations that produced 25-50% of maximum calcium dependent activation at 100 uM as single dose
Bos taurus [18] = organism: Bos taurus; experiment: Activation of bovine uterus myosin in smooth muscle assessed as compound concentration resulting in 40% increase in ATPase activity at calcium concentrations that produced 25-50% of maximum calcium dependent activation at 100 uM as single dose
Rattus norvegicus [19] = organism: Rattus norvegicus; experiment: Activation of myosin in Sprague-Dawley rat cardiomyocytes assessed as compound concentration resulting in 40% increase in ATPase activity at calcium concentrations that produced 25-50% of maximum calcium dependent activation; assay type: cell-based
Oryctolagus cuniculus = organism: Oryctolagus cuniculus; experiment: Activation of rabbit myosin in skeletal muscle assessed as compound concentration resulting in 40% increase in ATPase activity at calcium concentrations that produced 25-50% of maximum calcium dependent activation at 100 uM as single dose
[20] = Induction of contractility in Sprague-Dawley rat Cardiomyocytes assessed as change in increase in fractional shortening at 2 uM; assay type: functional, Cardiac muscle cell

| Compound | solubility thermodynamic [1] [µg/mL] | hepatic extraction ratio [2] | IC50 (Cytochrome P450 1A2) [µM] | Activity (Rattus norvegicus [3]) [µM] | fraction unbound [5] | solubility kinetic [9] [µg/mL] | R50 (Aorta) [µM] | Activity [4] [%] | further results |
| --- | --- | --- | --- | --- | --- | --- | --- | --- | --- |
| COC(=O)N1CCN(Cc2cc(F)cc(NC(=O)Nc3ccc(C)nc3)c2)CC1 | 4600 (≈ 11500 µM) | < 0.2 | > 10 | 1.7 | 0.103 |  | >25 |  | Activity [8]: 138% |
| O=C(Nc1cccnc1)Nc1cc(F)cc(Oc2cccnc2)c1 | 28 (≈ 86.3 µM) |  |  | 1.1 | 0.071 | 46 (≈ 142 µM) |  | 127 |  |
| COc1ccc(NC(=O)Nc2cc(F)cc(Oc3cccnc3)c2)cn1 |  |  |  | 1.4 | 0.075 | 28 (≈ 79 µM) |  | 134 |  |
| COc1ccc(NC(=O)Nc2cc(F)cc(Oc3cccnc3)c2)cc1 |  |  |  | 0.7 | 0.049 | < 1 |  | 139 |  |
| COC(=O)N1CCN(Cc2cccc(NC(=O)Nc3ccc(C)nc3)c2)CC1 | 4000 (≈ 10400 µM) | < 0.2 | > 10 | 4.5 | 0.128 |  | 15 |  | Activity [8]: 126% |
| O=C(Nc1ccc(F)cc1)Nc1cc(F)cc(Oc2cccnc2)c1 |  |  |  | 1.8 |  | 1.1 (≈ 3.22 µM) |  | 121 |  |
| COC(=O)N1CCN(Cc2cccc(NC(=O)Nc3ccc(C)nc3)c2F)CC1 [OMECAMTIV MECARBIL] | 2200 (≈ 5480 µM) | < 0.2 | > 10 | 0.58 | 0.204 |  | >25 |  | Vd [10]: 3.5 L/kg; bioavailability [11]: 100%; bioavailability [12]: 80%; Vd [13]: 3.6 L/kg; clearance [14]: 7.2 mL/min/kg; Activity [15]: 123%; clearance [16]: 22 mL/min/kg |
| O=C(Nc1cc(F)cc(Oc2cccnc2)c1)c1ccc(F)cc1 |  |  |  | 2.5 | 0.079 | 5.3 (≈ 16.2 µM) |  | 104 |  |
| O=C(Nc1cc(Oc2cccnc2)cc([N+](=O)[O-])c1)c1ccc(F)cc1 |  |  |  | 1.4 |  | < 1 |  |  | Activity (Gallus gallus): inactive; Activity (Bos taurus [17]): Active; Activity (Bos taurus [18]): inactive; Activity (Rattus norvegicus [19]): Active; Activity (Oryctolagus cuniculus): inactive; Activity [20]: 135% |
| O=C(Nc1cccc(Oc2cccnc2)c1)c1ccc(F)cc1 |  |  |  | 32 |  | 17 (≈ 55.1 µM) |  |  |  |

The next lines start with results.

| solubility thermodynamic [1] [µg/mL] | hepatic extraction ratio [2] | IC50 (Cytochrome P450 1A2) [µM] | Activity (Rattus norvegicus [3]) [µM] | fraction unbound [5] | solubility kinetic [9] [µg/mL] | Compound | R50 (Aorta) [µM] | Activity [4] [%] | further results |
| --- | --- | --- | --- | --- | --- | --- | --- | --- | --- |
| 130 (≈ 336 µM) | 0.6 | > 10 | 2.5 |  |  | CC(=O)N1CCC[C@@H](Oc2cc(F)cc(NC(=O)Nc3ccc(C)nc3)c2)C1 | 2.4 | 140 |  |
| 550 (≈ 1480 µM) |  |  | 7.3 | 0.175 |  | CC(=O)N1CCC[C@H](Oc2cc(F)cc(NC(=O)Nc3cccnc3)c2)C1 | >25 |  | inhibition at 10 µM (CYP1A2): 99%; Activity [6]: 122% |
| 13 (≈ 30.7 µM) | 0.9 | 0.06 | 0.7 | 0.112 |  | CN(C)S(=O)(=O)N1CC[C@@H](Oc2cc(F)cc(NC(=O)Nc3cccnc3)c2)C1 | >25 |  | Activity [7]: 137% |
| 17 (≈ 42.2 µM) | 0.3 | > 10 | 0.8 | 0.065 |  | COC(=O)N1CCC(Oc2cc(F)cc(NC(=O)Nc3ccc(C)nc3)c2)CC1 | 11 | 123 |  |
| 390 (≈ 1050 µM) | 0.5 | 0.08 | 2.5 | 0.175 |  | CC(=O)N1CCC[C@@H](Oc2cc(F)cc(NC(=O)Nc3cccnc3)c2)C1 | 1.7 | 129 |  |
| 40 (≈ 91.4 µM) |  |  | 0.6 | 0.079 |  | CN(C)S(=O)(=O)N1CCC[C@@H](Oc2cc(F)cc(NC(=O)Nc3cccnc3)c2)C1 | 6.6 |  | Activity [8]: 126% |
| 18 (≈ 46.3 µM) | 0.5 |  | 3.6 | 0.096 |  | COC(=O)N1CCC[C@@H](Oc2cc(F)cc(NC(=O)Nc3cccnc3)c2)C1 | 8 | 123 | inhibition at 10 µM (CYP1A2): 97% |
